# Reference: PubChem BioAssay AID2060902 (Molecular Pharmacology Branch, DTP, NCI, 2025)
# pIC50: −log10 of the molar value.
# Tested on: 485368-065-R3-J5-PDC spheroids with HUVEC/MSC, viability
# Assay: Anticancer human tumor 485368-065-R3-J5-PDC patient-derived pancreatic carcinoma cell line growth inhibition [RAS]
# Conditions: for pIC50: curve of first compound; for viability, T/C: stronger effect = lower value
# Method in brief: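 Agents were tested in combination matrices in half-log decrements from a top concentration at or near clinical Cmax (10 microM if undetermined). Targets were multi-cell spheroids of tumour lines plus HUVEC and MSC stromal cells.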
# [1] = second compound 0.000949 µM, first compound 0.0316 µM
# [2] = second compound 0.000949 µM, first compound 0.1 µM
# [3] = second compound 0.000949 µM, first compound 0.316 µM
# [4] = second compound 0.000949 µM, first compound 1 µM
# [5] = second compound 0.000949 µM, first compound 3.16 µM
# [6] = second compound 0.000949 µM, first compound 10 µM
# [7] = second compound 0.003 µM, first compound 0.0316 µM
# [8] = second compound 0.003 µM, first compound 0.1 µM
# [9] = second compound 0.003 µM, first compound 0.316 µM
# [10] = second compound 0.003 µM, first compound 1 µM
# [11] = second compound 0.003 µM, first compound 3.16 µM
# [12] = second compound 0.003 µM, first compound 10 µM
# [13] = second compound 0.00949 µM, first compound 0.0316 µM
# [14] = second compound 0.00949 µM, first compound 0.1 µM
# [15] = second compound 0.00949 µM, first compound 0.316 µM
# [16] = second compound 0.00949 µM, first compound 1 µM
# [17] = second compound 0.00949 µM, first compound 3.16 µM
# [18] = second compound 0.00949 µM, first compound 10 µM
# [19] = second compound 0.03 µM, first compound 0.0316 µM
# [20] = second compound 0.03 µM, first compound 0.1 µM
# [21] = second compound 0.03 µM, first compound 0.316 µM
# [22] = second compound 0.03 µM, first compound 1 µM
# [23] = second compound 0.03 µM, first compound 3.16 µM
# [24] = second compound 0.03 µM, first compound 10 µM
# [25] = second compound 0.0949 µM, first compound 0.0316 µM
# [26] = second compound 0.0949 µM, first compound 0.1 µM
# [27] = second compound 0.0949 µM, first compound 0.316 µM
# [28] = second compound 0.0949 µM, first compound 1 µM
# [29] = second compound 0.0949 µM, first compound 3.16 µM
# [30] = second compound 0.0949 µM, first compound 10 µM
# [31] = second compound 0.3 µM, first compound 0.0316 µM
# [32] = second compound 0.3 µM, first compound 0.1 µM
# [33] = second compound 0.3 µM, first compound 0.316 µM
# [34] = second compound 0.3 µM, first compound 1 µM
# [35] = second compound 0.3 µM, first compound 3.16 µM
# [36] = second compound 0.3 µM, first compound 10 µM
# 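Also: spheroids exposed to agents for seven days before readout.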
smiles,measurement,setting,value
Cc1nc(N2CCC3(CC2)COC(C)C3N)c(CO)nc1Sc1ccnc(N)c1Cl (stereo not drawn) + C=CC(=O)N1CCN(c2nc(OCC3CCCN3C)nc3c(F)c(-c4nc(N)cc(C)c4C(F)(F)F)c(Cl)cc23)C(C)C1,pIC50,second compound 0.00316 µM,5.11
same,pIC50,second compound 0.01 µM,5.11
same,pIC50,second compound 0.0316 µM,< 5.00
same,pIC50,second compound 0.1 µM,< 5.00
same,pIC50,second compound 0.316 µM,< 5.00
same,pIC50,second compound 1 µM,< 5.00
same,"viability, T/C","second compound 0.00316 µM, first compound 0.0316 µM",101%
same,"viability, T/C","second compound 0.00316 µM, first compound 0.1 µM",84.3%
same,"viability, T/C","second compound 0.00316 µM, first compound 0.316 µM",83.6%
same,"viability, T/C","second compound 0.00316 µM, first compound 1 µM",68.2%
same,"viability, T/C","second compound 0.00316 µM, first compound 3.16 µM",57.7%
same,"viability, T/C","second compound 0.00316 µM, first compound 10 µM",47.6%
same,"viability, T/C","second compound 0.01 µM, first compound 0.0316 µM",91.7%
same,"viability, T/C","second compound 0.01 µM, first compound 0.1 µM",89.4%
same,"viability, T/C","second compound 0.01 µM, first compound 0.316 µM",85.1%
same,"viability, T/C","second compound 0.01 µM, first compound 1 µM",72.8%
same,"viability, T/C","second compound 0.01 µM, first compound 3.16 µM",64.6%
same,"viability, T/C","second compound 0.01 µM, first compound 10 µM",45.9%
same,"viability, T/C","second compound 0.0316 µM, first compound 0.0316 µM",97.4%
same,"viability, T/C","second compound 0.0316 µM, first compound 0.1 µM",93.1%
same,"viability, T/C","second compound 0.0316 µM, first compound 0.316 µM",66.8%
same,"viability, T/C","second compound 0.0316 µM, first compound 1 µM",61.5%
same,"viability, T/C","second compound 0.0316 µM, first compound 3.16 µM",63.1%
same,"viability, T/C","second compound 0.0316 µM, first compound 10 µM",61.7%
same,"viability, T/C","second compound 0.1 µM, first compound 0.0316 µM",86.4%
same,"viability, T/C","second compound 0.1 µM, first compound 0.1 µM",81.7%
same,"viability, T/C","second compound 0.1 µM, first compound 0.316 µM",75.6%
same,"viability, T/C","second compound 0.1 µM, first compound 1 µM",75.6%
same,"viability, T/C","second compound 0.1 µM, first compound 3.16 µM",70.7%
same,"viability, T/C","second compound 0.1 µM, first compound 10 µM",53.1%
same,"viability, T/C","second compound 0.316 µM, first compound 0.0316 µM",98.5%
same,"viability, T/C","second compound 0.316 µM, first compound 0.1 µM",89.7%
same,"viability, T/C","second compound 0.316 µM, first compound 0.316 µM",79.9%
same,"viability, T/C","second compound 0.316 µM, first compound 1 µM",77%
same,"viability, T/C","second compound 0.316 µM, first compound 3.16 µM",65.5%
same,"viability, T/C","second compound 0.316 µM, first compound 10 µM",51.2%
same,"viability, T/C","second compound 1 µM, first compound 0.0316 µM",97.3%
same,"viability, T/C","second compound 1 µM, first compound 0.1 µM",95.8%
same,"viability, T/C","second compound 1 µM, first compound 0.316 µM",80.3%
same,"viability, T/C","second compound 1 µM, first compound 1 µM",73.1%
same,"viability, T/C","second compound 1 µM, first compound 3.16 µM",58.7%
same,"viability, T/C","second compound 1 µM, first compound 10 µM",50.1%
CC1(O)CCCC1n1c(=O)c(C(F)F)cc2cnc(NC3CCN(S(C)(=O)=O)CC3)nc21 (stereo not drawn) + CCn1c(-c2cc(N3CCN(C)CC3)cnc2C(C)OC)c2c3cc(ccc31)-c1csc(n1)CC(NC(=O)C1CC1C)C(=O)N1CCCC(N1)C(=O)OCC(C)(C)C2,pIC50,second compound 0.000949 µM,> 7.50
same,pIC50,second compound 0.003 µM,> 7.50
same,pIC50,second compound 0.00949 µM,> 7.50
same,pIC50,second compound 0.03 µM,> 7.50
same,pIC50,second compound 0.0949 µM,> 7.50
same,pIC50,second compound 0.3 µM,> 7.50
same,"viability, T/C",[1],32.3%
same,"viability, T/C",[2],24.5%
same,"viability, T/C",[3],18.9%
same,"viability, T/C",[4],21.9%
same,"viability, T/C",[5],27.9%
same,"viability, T/C",[6],14%
same,"viability, T/C",[7],18.5%
same,"viability, T/C",[8],15.5%
same,"viability, T/C",[9],13.4%
same,"viability, T/C",[10],11.9%
same,"viability, T/C",[11],14.7%
same,"viability, T/C",[12],9.44%
same,"viability, T/C",[13],14.6%
same,"viability, T/C",[14],12.9%
same,"viability, T/C",[15],11.6%
same,"viability, T/C",[16],10.3%
same,"viability, T/C",[17],11%
same,"viability, T/C",[18],8.01%
same,"viability, T/C",[19],11.8%
same,"viability, T/C",[20],9.04%
same,"viability, T/C",[21],9.94%
same,"viability, T/C",[22],9.99%
same,"viability, T/C",[23],9.98%
same,"viability, T/C",[24],8.86%
same,"viability, T/C",[25],7.96%
same,"viability, T/C",[26],8.33%
same,"viability, T/C",[27],7.56%
same,"viability, T/C",[28],9.28%
same,"viability, T/C",[29],11.6%
same,"viability, T/C",[30],8.42%
same,"viability, T/C",[31],7.72%
same,"viability, T/C",[32],7.59%
same,"viability, T/C",[33],7.36%
same,"viability, T/C",[34],7.64%
same,"viability, T/C",[35],9.08%
same,"viability, T/C",[36],7.54%
C=CC(=O)Nc1cc(Nc2nccc(-c3cn(C)c4ccccc34)n2)c(OC)cc1N(C)CCN(C)C + CCn1c(-c2cc(N3CCN(C)CC3)cnc2C(C)OC)c2c3cc(ccc31)-c1csc(n1)CC(NC(=O)C1CC1C)C(=O)N1CCCC(N1)C(=O)OCC(C)(C)C2,pIC50,second compound 0.000949 µM,> 8.50
same,pIC50,second compound 0.003 µM,> 8.50
same,pIC50,second compound 0.00949 µM,> 8.50
same,pIC50,second compound 0.03 µM,> 8.50
same,pIC50,second compound 0.0949 µM,> 8.50
same,pIC50,second compound 0.3 µM,> 8.50
same,"viability, T/C","second compound 0.000949 µM, first compound 0.00316 µM",38.2%
same,"viability, T/C","second compound 0.000949 µM, first compound 0.01 µM",34.1%
same,"viability, T/C",[1],30.4%
same,"viability, T/C",[2],28.6%
same,"viability, T/C",[3],25.3%
same,"viability, T/C",[4],17.8%
same,"viability, T/C","second compound 0.003 µM, first compound 0.00316 µM",21.1%
same,"viability, T/C","second compound 0.003 µM, first compound 0.01 µM",19.9%
same,"viability, T/C",[7],18.6%
same,"viability, T/C",[8],14.6%
same,"viability, T/C",[9],13.4%
same,"viability, T/C",[10],10.9%
same,"viability, T/C","second compound 0.00949 µM, first compound 0.00316 µM",16.4%
same,"viability, T/C","second compound 0.00949 µM, first compound 0.01 µM",15.7%
same,"viability, T/C",[13],15.5%
same,"viability, T/C",[14],13.1%
same,"viability, T/C",[15],9.97%
same,"viability, T/C",[16],7.7%
same,"viability, T/C","second compound 0.03 µM, first compound 0.00316 µM",13%
same,"viability, T/C","second compound 0.03 µM, first compound 0.01 µM",11.8%
same,"viability, T/C",[19],9.7%
same,"viability, T/C",[20],9.51%
same,"viability, T/C",[21],7.35%
same,"viability, T/C",[22],5.44%
same,"viability, T/C","second compound 0.0949 µM, first compound 0.00316 µM",8.87%
same,"viability, T/C","second compound 0.0949 µM, first compound 0.01 µM",9.53%
same,"viability, T/C",[25],8.8%
same,"viability, T/C",[26],6.02%
same,"viability, T/C",[27],6.17%
same,"viability, T/C",[28],3.77%
same,"viability, T/C","second compound 0.3 µM, first compound 0.00316 µM",8.98%
same,"viability, T/C","second compound 0.3 µM, first compound 0.01 µM",8.98%
same,"viability, T/C",[31],7.33%
same,"viability, T/C",[32],7.51%
same,"viability, T/C",[33],4.7%
same,"viability, T/C",[34],3.38%
CCC(CC)c1cc(NC2CCC(N)C2)n2nccc2n1 (stereo not drawn) + CCn1c(-c2cc(N3CCN(C)CC3)cnc2C(C)OC)c2c3cc(ccc31)-c1csc(n1)CC(NC(=O)C1CC1C)C(=O)N1CCCC(N1)C(=O)OCC(C)(C)C2,pIC50,second compound 0.000949 µM,5.98
same,pIC50,second compound 0.003 µM,> 7.50
same,pIC50,second compound 0.00949 µM,> 7.50
same,pIC50,second compound 0.03 µM,> 7.50
same,pIC50,second compound 0.0949 µM,> 7.50
same,pIC50,second compound 0.3 µM,> 7.50
same,"viability, T/C",[1],42%
same,"viability, T/C",[2],36.8%
same,"viability, T/C",[3],56.3%
same,"viability, T/C",[4],72.7%
same,"viability, T/C",[5],3.44%
same,"viability, T/C",[6],5.24%
same,"viability, T/C",[7],23.8%
same,"viability, T/C",[8],24.9%
same,"viability, T/C",[9],32.9%
same,"viability, T/C",[10],38.9%
same,"viability, T/C",[11],3.26%
same,"viability, T/C",[12],6.21%
same,"viability, T/C",[13],15.9%
same,"viability, T/C",[14],21.2%
same,"viability, T/C",[15],23.5%
same,"viability, T/C",[16],35.6%
same,"viability, T/C",[17],2.54%
same,"viability, T/C",[18],5.71%
same,"viability, T/C",[19],14.5%
same,"viability, T/C",[20],14.5%
same,"viability, T/C",[21],20.1%
same,"viability, T/C",[22],30.4%
same,"viability, T/C",[23],2.68%
same,"viability, T/C",[24],6.01%
same,"viability, T/C",[25],8.49%
same,"viability, T/C",[26],11.9%
same,"viability, T/C",[27],15.1%
same,"viability, T/C",[28],30.3%
same,"viability, T/C",[29],3.16%
same,"viability, T/C",[30],6.24%
same,"viability, T/C",[31],8.25%
same,"viability, T/C",[32],12.6%
same,"viability, T/C",[33],14.8%
same,"viability, T/C",[34],25.4%
same,"viability, T/C",[35],2.42%
same,"viability, T/C",[36],4.74%
